Laboratory results published in ChEMBL document CHEMBL6114980, “Single or double lipid-modified ultra-short antimicrobial peptides for treating infections caused by resistant bacteria” (Eur J Med Chem, 2025).

Assays:
Type in all cases: functional
Staphylococcus aureus [1] = assay: Antibacterial activity against Staphylococcus aureus assessed as reduction in survival bacterial growth in presence of KCl measured after 18 to 24 hrs (reference value: 8 microM); settings: time 18-24 hrs
Pseudomonas aeruginosa [2] = assay: Antibacterial activity against Pseudomonas aeruginosa 124 assessed as reduction in bacterial growth incubated for 18 to 24 hrs by broth microdilution method; settings: time 18-24 hrs
Escherichia coli [3] = assay: Antibacterial activity against Escherichia coli assessed as reduction in survival bacterial growth in presence of KCl measured after 18 to 24 hrs (reference value: 2 microM); settings: time 18-24 hrs
Klebsiella pneumoniae [4] = assay: Antibacterial activity against Klebsiella pneumoniae ATCC 700603 infected in male BALB/c mouse lung infection model assessed as reduction in bacterial load at 5 mg/kg, ip measured after 6 to 36 hrs (reference value: 1.77 10^6CFU/mg); settings: time 6-36 hrs
Staphylococcus aureus [5] = assay: Antibacterial activity against Staphylococcus aureus assessed as reduction in survival bacterial growth in presence of Mgcl2 measured after 18 to 24 hrs (reference value: 8 microM); settings: time 18-24 hrs
Staphylococcus aureus [6] = assay: Antibacterial activity against Staphylococcus aureus assessed as reduction in survival bacterial growth in presence of ZnCl2 measured after 18 to 24 hrs (reference value: 8 microM); settings: time 18-24 hrs
Pseudomonas aeruginosa [7] = assay: Antibacterial activity against Pseudomonas aeruginosa ATCC 27853 assessed as reduction in bacterial growth incubated for 18 to 24 hrs by broth microdilution method; settings: time 18-24 hrs
Escherichia coli [8] = assay: Antibacterial activity against Escherichia coli assessed as reduction in survival bacterial growth by measuring fold change in presence of ZnCl2 measured after 18 to 24 hrs; settings: time 18-24 hrs
Staphylococcus aureus [9] = assay: Antibacterial activity against Staphylococcus aureus assessed as reduction in survival bacterial growth by measuring fold change in presence of MgCl2 measured after 18 to 24 hrs; settings: time 18-24 hrs
Staphylococcus aureus [10] = assay: Antibacterial activity against Staphylococcus aureus assessed as reduction in survival bacterial growth in presence of NaCl measured after 18 to 24 hrs (reference value: 8 microM); settings: time 18-24 hrs
Escherichia coli [11] = assay: Antibacterial activity against Escherichia coli assessed as reduction in survival bacterial growth in presence of NaCl measured after 18 to 24 hrs (reference value: 2 microM); settings: time 18-24 hrs
Klebsiella pneumoniae [12] = assay: Antibacterial activity against Klebsiella pneumoniae ATCC 700603 assessed as reduction in bacterial growth incubated for 18 to 24 hrs by broth microdilution method; settings: time 18-24 hrs
Acinetobacter baumannii [13] = assay: Antibacterial activity against Acinetobacter baumannii ATCC 19606 assessed as reduction in bacterial growth incubated for 18 to 24 hrs by broth microdilution method; settings: time 18-24 hrs
Escherichia coli [14] = assay: Antibacterial activity against Escherichia coli assessed as reduction in survival bacterial growth by measuring fold change in presence of NaCl measured after 18 to 24 hrs; settings: time 18-24 hrs
Staphylococcus aureus [15] = assay: Antibacterial activity against Staphylococcus aureus 794 assessed as reduction in bacterial growth incubated for 18 to 24 hrs by broth microdilution method; settings: time 18-24 hrs
Acinetobacter baumannii [16] = assay: Antibacterial activity against Acinetobacter baumannii 92359 assessed as reduction in bacterial growth incubated for 18 to 24 hrs by broth microdilution method; settings: time 18-24 hrs
Escherichia coli [17] = assay: Antibacterial activity against Escherichia coli 850 assessed as reduction in bacterial growth incubated for 18 to 24 hrs by broth microdilution method; settings: time 18-24 hrs
Pseudomonas aeruginosa [18] = assay: Antibacterial activity against Pseudomonas aeruginosa 6434N assessed as reduction in bacterial growth incubated for 18 to 24 hrs by broth microdilution method; settings: time 18-24 hrs
Escherichia coli [19] = assay: Antibacterial activity against Escherichia coli assessed as reduction in survival bacterial growth in presence of FeCl3 measured after 18 to 24 hrs (reference value: 2 microM); settings: time 18-24 hrs
Escherichia coli [20] = assay: Antibacterial activity against Escherichia coli 780 assessed as reduction in bacterial growth incubated for 18 to 24 hrs by broth microdilution method; settings: time 18-24 hrs
Acinetobacter baumannii [21] = assay: Antibacterial activity against Acinetobacter baumannii 5444 assessed as reduction in bacterial growth incubated for 18 to 24 hrs by broth microdilution method; settings: time 18-24 hrs
Escherichia coli [22] = assay: Bactericidal activity against Escherichia coli 25922 assessed as eradication of bacteria at 2 times MIC measured within 1 hr by time-kill assay relative to control
Escherichia coli [23] = assay: Antibacterial activity against Escherichia coli assessed as reduction in survival bacterial growth in presence of ZnCl2 measured after 18 to 24 hrs (reference value: 2 microM); settings: time 18-24 hrs
Escherichia coli [24] = assay: Antibacterial activity against Escherichia coli assessed as reduction in survival bacterial growth in presence of MgCl2 measured after 18 to 24 hrs (reference value: 2 microM); settings: time 18-24 hrs
Staphylococcus aureus [25] = assay: Antibacterial activity against Staphylococcus aureus ATCC 25923 assessed as reduction in bacterial growth incubated for 18 to 24 hrs by broth microdilution method; settings: time 18-24 hrs
Escherichia coli [26] = assay: Antibacterial activity against Escherichia coli assessed as reduction in survival bacterial growth by measuring fold change in presence of MgCl2 measured after 18 to 24 hrs; settings: time 18-24 hrs
Enterococcus faecalis = assay: Antibacterial activity against Enterococcus faecalis ATCC 29212 assessed as reduction in bacterial growth incubated for 18 to 24 hrs by broth microdilution method; settings: time 18-24 hrs
Escherichia coli [27] = assay: Antibacterial activity against Escherichia coli ATCC 25922 assessed as reduction in bacterial growth incubated for 18 to 24 hrs by broth microdilution method; settings: time 18-24 hrs
Staphylococcus aureus [28] = assay: Antibacterial activity against methicillin-resistant Staphylococcus aureus ATCC 33591 assessed as reduction in bacterial growth incubated for 18 to 24 hrs by broth microdilution method; settings: time 18-24 hrs
Staphylococcus aureus [29] = assay: Antibacterial activity against Staphylococcus aureus 125 assessed as reduction in bacterial growth incubated for 18 to 24 hrs by broth microdilution method; settings: time 18-24 hrs
Staphylococcus aureus [30] = assay: Antibacterial activity against methicillin-resistant Staphylococcus aureus 75 assessed as reduction in bacterial growth incubated for 18 to 24 hrs by broth microdilution method; settings: time 18-24 hrs
[31] = test system: Staphylococcus epidermidis; assay: Antibacterial activity against Staphylococcus epidermidis ATCC 12228 assessed as reduction in bacterial growth incubated for 18 to 24 hrs by broth microdilution method; settings: time 18-24 hrs
Staphylococcus aureus [32] = assay: Antibacterial activity against Staphylococcus aureus assessed as reduction in survival bacterial growth by measuring fold change in presence of NaCl measured after 18 to 24 hrs; settings: time 18-24 hrs
Staphylococcus aureus [33] = assay: Antibacterial activity against Staphylococcus aureus assessed as reduction in survival bacterial growth in presence of FeCl3 measured after 18 to 24 hrs (reference value: 8 microM); settings: time 18-24 hrs

`CC(C)CCCCC(=O)N[C@@H](CCN)C(=O)N[C@H](C(=O)N[C@@H](CCN)C(=O)N[C@H]1CCNC(=O)[C@H]([C@@H](C)O)NC(=O)[C@H](CCN)NC(=O)[C@H](CCN)NC(=O)[C@H](CC(C)C)NC(=O)[C@@H](Cc2ccccc2)NC(=O)[C@H](CCN)NC1=O)[C@@H](C)O.CC[C@H](C)CCCCC(=O)N[C@@H](CCN)C(=O)N[C@H](C(=O)N[C@@H](CCN)C(=O)N[C@H]1CCNC(=O)[C@H]([C@@H](C)O)NC(=O)[C@H](CCN)NC(=O)[C@H](CCN)NC(=O)[C@H](CC(C)C)NC(=O)[C@@H](Cc2ccccc2)NC(=O)[C@H](CCN)NC1=O)[C@@H](C)O` gave an MIC (Staphylococcus aureus [1]) of 8 µM, an MIC (Pseudomonas aeruginosa [2]) of 16 µM and an MIC (Escherichia coli [3]) of 2 µM. The Activity (Klebsiella pneumoniae [4]) was 1.54 10^4CFU/mg, the MIC (Staphylococcus aureus [5]) was 16 µM and the MIC (Staphylococcus aureus [6]) was 8 µM. For the same compound, the MIC (Pseudomonas aeruginosa [7]) was 4 µM, the “fold change (FC)” value (Escherichia coli [8]) was 2 and the “fold change (FC)” value (Staphylococcus aureus [9]) was 2. For the same compound, the MIC (Staphylococcus aureus [10]) was 128 µM, the MIC (Escherichia coli [11]) was 2 µM and the MIC (Klebsiella pneumoniae [12]) was 4 µM. For the same compound, the MIC (Acinetobacter baumannii [13]) was 4 µM, the “fold change (FC)” value (Escherichia coli [14]) was 16 and the MIC (Staphylococcus aureus [15]) was 16 µM. It also gave an MIC (Acinetobacter baumannii [16]) of 32 µM, an MIC (Escherichia coli [17]) of 4 µM and an MIC (Pseudomonas aeruginosa [18]) of 2 µM. The MIC (Escherichia coli [19]) was 2 µM, the MIC (Escherichia coli [20]) was 4 µM and the MIC (Acinetobacter baumannii [21]) was 32 µM. It also gave an Activity (Escherichia coli [22]) of 100%, an MIC (Escherichia coli [23]) of 1 µM and an MIC (Escherichia coli [24]) of 2 µM. The MIC (Staphylococcus aureus [25]) was 8 µM, the “fold change (FC)” value (Escherichia coli [26]) was 2 and the MIC (Enterococcus faecalis) was 128 µM. It also gave an MIC (Escherichia coli [27]) of 2 µM, an MIC (Staphylococcus aureus [28]) of 16 µM and an MIC (Staphylococcus aureus [29]) of 8 µM. The MIC (Staphylococcus aureus [30]) was 16 µM, the MIC [31] was 8 µM and the “fold change (FC)” value (Staphylococcus aureus [32]) was 16. It also gave an MIC (Staphylococcus aureus [33]) of 8 µM.
